Source: US5208244A, “Method of selectively inhibiting calcium-independent myocardial phospholipase A2” (priority 1990, dated 1993)
Structures can show the parent of a compound that is named as a salt. Where two headings read alike, the source gives them in different places.

Tests used:
porcine pancreatic PLA2 = biological target: T1, porcine pancreatic PLA2 (Sus scrofa, UniProt P00592); assay: Porcine pancreatic PLA2 assay ([14C]-oleate labelled E. coli); assay type: biochemical; conditions: 10 mM CaCl2, pH 8.0; > : inhibition but not enough for an IC50; >> : little or no inhibition at highest concentration; read-out: Porcine Pancr. PLA2 IC50
T1 construct: purchased Sigma (St. Louis); host or cells: porcine pancreas
T1 sequence (P00592 23-146): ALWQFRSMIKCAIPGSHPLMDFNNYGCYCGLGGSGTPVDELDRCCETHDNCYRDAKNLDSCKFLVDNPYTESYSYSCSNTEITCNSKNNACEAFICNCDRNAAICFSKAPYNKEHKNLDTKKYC
Excerpt: (§1) Several other PLA2 assays were utilized in order to gain some measure of the selectivity of the inhibitors of calcium-independent myocardial PLA2. Specifically, three other calcium-dependent mammalian PLA2 assays are used: (1) sheep platelet PLA2, (2) human synovial fluid PLA2, and (3) porcine pancreatic PLA2. The PLA2 enzymes represent different groups of PLA2 enzymes. Myocardial PLA2, platelet PLA2, and secreted PLA2 enzymes (human synovial fluid PLA2 and porcine pancreatic PLA2) have very different calcium requirements, which may be typical of their respective classes.
Purified porcine pancreatic PLA2 was obtained from Sigma (St. Louis, Miss.). PLA2 activity was measured by using [^14 C]-oleate labelled autoclaved E. coli as described by Franson, Patriarca and Elsbach (referenced above). The assay was performed at 37° C. for 5 min in a final volume of 100 μL Tris-HCl buffer (100
mM, pH 8.0) containing 1 mM EDTA, 10 mM CaCl2, and E. coli (containing 10 nmol phospholipid). The test compound or control vehicle was preincubated with PLA2 for 5 min, followed by adding E. coli to initiate the reaction. The reaction was terminated by adding 2 mL tetrahydrofuran. The reaction product, [^14 C]-oleic acid, was isolated using a 1 mL Bond Elute--NH2 column and counted by liquid scintillation spectrometry.
(§2) Two greater than symbols (>>) indicate little or no inhibition at the highest concentration used. Activation of an enzyme is indicated by a +X% which gave that activation of X%.

sheep platelet PLA2 = assay: Calcium-dependent sheep platelet PLA2 assay; assay type: biochemical; conditions: 1 μM CaCl2, pH 7.2; > : inhibition observed but not enough for an IC50 at highest concentration
Excerpt: as §1
Homogeneous sheep platelet cytosolic PLA2 was prepared as described by Loeb, L. A., and Gross, R. W. J. Biol. Chem. 261, 10467-10470 (1986). The purified calcium-dependent platelet PLA2 was preincubated in 70 mM Tris-Cl (pH 7.2) containing 1 μM CaCl2 and test compound for 5 min at 25° C. Catalysis was initiated by injection 1 μM radiolabeled substrate (1-O-(Z)-(1'-hexadecenyl)-2-[9,10-^3 H]-oleoyl-3-phosphorylcholine). After a 10 min incubation period at 37° C., reaction products were extracted with n-butanol, separated by thin layer chromatography, and quantified by scintillation spectrometry. PLA2 activity was compared in the presence and absence of test compound and the IC50 was determined.
as §2

HL-60 cells = assay: HL-60 cell assay for LTB4 and PGE2 production (calcium ionophore A23187 induced); assay type: cell-based; conditions: for IC50: Homo sapiens, HL-60, A23187 5×10^-6 M, > : inhibition but not enough for an IC50
Procedure: An additional whole cell assay was also performed. In this assay, HL-60 cells are induced with the calcium ionophore A23187 in the presence of varying amounts of inhibitor, and the amounts of the prostaglandin E2 (PGE2) and leukotriene B4 (LTB4) which form are measured. Calcium ionophore A23187 activates a calcium-dependent PLA2 which leads to the enhanced production of the arachidonic acid metabolites PGE2 and LTB4. The concentrations of inhibitor which decrease the production of PGE2 and LTB4 by 50% relative to controls are expressed as IC50 values.
HL-60 Cell Assay for LTB4 and PGE2 Production
HL-60 cells grown exponentially in culture were induced to differentiate into granulocytes by a four day incubation with 0.8% (v/v) N,N-dimethylformamide. Prior to assay, differentiated HL-60 cells were washed once with Hanks' balanced salt solution containing 0.35 mg/mL sodium bicarbonate and 10 mM Hepes, pH 7.3 (HBSS) and resuspended in HBSS at a 3×10^6 cells/mL concentration. DMSO or test compounds solubilized in DMSO were added at 1:100 dilution to 1.0 mL HL-60 cell suspensions (3×10^6 cells) and preincubated at 37° C. for 10 min in a shaking water bath. After an additional 5 min incubation with 5×10^-6 M calcium ionophore, A23187 (Calbiochem, La Jolla, Calif.), the cells were centrifuged at 12,800×g for 15 seconds and the supernatant (0.8 mL) removed and stored at -20° C. for LTB4 and PGE2 quantitation by radioimmunoassay (kits obtained from Amersham, United Kingdom and NEN Research Products, N. Billerica, Mass.).
as §2

[1] = biological target: T2, human synovial fluid PLA2 (Homo sapiens, UniProt P14555); assay: Human synovial fluid PLA2 assay ([14C]-oleate labelled E. coli); assay type: biochemical; conditions: 5 mM CaCl2, pH 7.0; > : inhibition but not enough for an IC50; >> : little or no inhibition at highest concentration; read-out: HSF PLA2 IC50
T2 construct: Purified human synovial fluid PLA2; from tissue; host or cells: human synovial fluid; obtained from R. C; Franson (Medical College of Virginia)
T2 sequence (P14555 21-144): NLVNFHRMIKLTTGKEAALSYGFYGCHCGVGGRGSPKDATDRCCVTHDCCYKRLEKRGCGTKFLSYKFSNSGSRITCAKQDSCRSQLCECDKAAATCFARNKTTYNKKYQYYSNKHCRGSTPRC
Excerpt: as §1
Purified human synovial fluid PLA2 (purified by the procedure of Fawzy, A. A. and Franson, R. C. Biophys. J. 49, 533a [1986]) was obtained from R. C. Franson (Medical College of Virginia, Richmond, Va.). PLA2 activity was measured by using [^14 C]-oleate labelled autoclaved E. coli as substrate as described by Franson, R. C., Patriarca, P., and Elsbach, P. J. Lipid Res. 15, 380-388 (1974). The assay was performed at 37° C. for 30 min in a final volume of 100 μL 50 mM Hepes buffer (pH 7.0) containing 150 mM NaCl, 5 mM CaCl2, and E. coli cells (corresponding to 10 nmol phospholipid). The test compound or control vehicle was preincubated with PLA2 for 5 min, followed by adding E. coli to initiate the reaction. The reaction was terminated by adding 2 mL tetrahydrofuran. The reaction product, [^14 C]-oleic acid, was isolated using a 1 mL Bond Elute--NH2 column and counted by liquid scintillation spectrometry.
as §2

[2] = tested on: calcium-independent canine myocardial PLA2; assay: Inhibition of purified calcium-independent canine myocardial PLA2 (radiolabeled fatty acid release); assay type: biochemical; conditions: for IC50: purified enzyme, 6.4 mM EGTA, pH 7.0, 5 min preincubation 25° C., 5 min at 37° C., read-out: Canine Heart PLA2 IC50; for selectivity for calcium-independent canine myocardial PLA2 over the calcium-dependent PLA2 enzymes: versus calcium-dependent PLA2 enzymes
Procedure: This assay consists of determining the amount of radiolabeled fatty acid which is liberated from the radiolabeled phospholipid substrate by purified calcium-independent canine myocardial PLA2 in the presence of varying concentrations of the inhibitor. […] This concentration is defined as the IC50.
Appropriate controls were performed in the absence of test compound. Catalysis was initiated by injection of 1 μM radiolabeled substrate (1-O-(Z)-(1'-hexadecenyl)-2-[9,10-^3 H]-oleoyl-3-phosphorylcholine). After a 5 min incubation at 37° C., reaction products were extracted with n-butanol, separated by thin layer chromatography, and quantified by scintillation spectrometry.
as §2

rat neonatal myocytes = conditions: cited from earlier work
[3] = LTB4 production, read-out: HL-60 LTB4 IC50
[4] = PGE2 production, >> : little or no inhibition at highest concentration, read-out: HL-60 PGE2 IC50

| SMILES | IC50 (porcine pancreatic PLA2) [µM] | IC50 (sheep platelet PLA2) [µM] | IC50 (HL-60 cells; [3]) [µM] | IC50 (HL-60 cells; [4]) [µM] | IC50 [1] [µM] | potency against canine myocardial PLA2 (in words) [2] | IC50 [2] [µM] | further results |
| --- | --- | --- | --- | --- | --- | --- | --- | --- |
| O=C1O/C(=C/I)CCC1c1cccc2ccccc12 (centres unmarked) [Example 1, Tetrahydro-(E)-6-(iodomethylene)-3-(1-naphthalenyl)-2H-pyran-2-one] | > 100 | 100 | 11.7 | > 100 | > 100 | most potent compound known against calcium-independent canine myocardial PLA2 | 0.031 | HL-60 PGE2 activation (+X%) (HL-60 cells; PGE2 production): +300%; selectivity for calcium-independent canine myocardial PLA2 over the calcium-dependent PLA2 enzymes [2]: over 3200 -fold |
| C#C/C=C1\CCC(c2cccc3ccccc23)C(=O)O1 (centres unmarked) [Example 2, Tetrahydro-3-(1-Naphthalenyl)-(E)-6-(prop-2-ynylidene)-2H-pyran-2-one] | 17 | 38 | > 10 | > 10 | 53 | – | – | – |
| O=C1O/C(=C/Br)CCC1c1cccc2ccccc12 (centres unmarked) [Example 3, (E)-6-(bromomethylene)tetrahydro-3-(1-naphthalenyl)-2H-pyran-2-one] | > 100 | 72 | > 10 | > 10 | > 100 | extremely potent inhibitors of canine myocardial PLA2 | 0.14 | HL-60 PGE2 activation (+X%) (HL-60 cells; PGE2 production): +91%; selectivity for calcium-independent canine myocardial PLA2 over the calcium-dependent PLA2 enzymes [2]: over 500 -fold |
| O=C1O/C(=C\I)CCC1c1cccc2ccccc12 (centres unmarked) [Example 4, Tetrahydro-(Z)-6-(iodomethylene)-3-(1-naphthalenyl)-2H-pyran-2-one] | – | – | – | – | – | potency drops off by almost an order of magnitude | 0.19 | – |
| O=C1O/C(=C/Br)CCC1c1ccccc1 (centres unmarked) [Example 5, (E)-6-(Bromomethylene)tetrahydro-3-phenyl-2H-pyran-2-one] | > 100 | > 100 | 1.1 | > 100 | > 100 | – | 0.25 | HL-60 PGE2 activation (+X%) (HL-60 cells; PGE2 production): +63%; selectivity for calcium-independent canine myocardial PLA2 over the calcium-dependent PLA2 enzymes [2]: over 400 -fold |
| O=C1O/C(=C/Br)CC1c1cccc2ccccc12 (centres unmarked) [Example 6, (E)-5-(Bromomethylene)tetrahydro-3-(1-naphthalenyl)-2(3H)-furanone] | – | – | – | – | – | – | 1.7 | – |
| C=C1CCC(c2cccc3ccccc23)C(=O)O1 (centres unmarked) [Example 7, Tetrahydro-6-methylene-3-(1-naphthalenyl)-2H-pyran-2-one] | – | – | – | – | – | loss of more than two orders of magnitude in potency | 22 | – |
| O=C1O/C(=C/Br)CCC1Oc1ccccc1 (centres unmarked) [Example 8, (E)-6-(Bromomethylene)tetrahydro-3-phenoxy-2H-pyran-2-one] | – | – | – | – | – | – | 21 | – |
| O=C1CCC/C(=C\Br)O1 [Example 9, (E)-6-(Bromomethylene)tetrahydro-2H-pyran-2-one] | – | – | – | – | – | – | – | Canine Heart PLA2 inhibition at 100 μM ([2]; 100 μM, printed in the IC50 column with footnote 4): 28% |
| O=C1O/C(=C/Br)CCC1c1cccnc1 (centres unmarked) [Example 10, (E)-6-(Bromomethylene)tetrahydro-3-(3-pyridyl)-2H-pyran-2-one Hydrochloride] | – | – | – | – | – | – | 75 | – |
| COC1=CCC2=C(CCC3C2CC[C@@]2(C)C3CC[C@@H]2N(C)CCCN(C)C)C1 (some centres unmarked) [U26,384] | – | – | – | – | – | – | – | release of arachidonic acid, phospholipid degradation, sarcolemmal membrane defects and release of creatine kinase (rat neonatal myocytes; induced by iodoacetate): prevented the release of arachidonic acid, phospholipid degradation, sarcolemmal membrane defects and the release of creatine kinase |
| O=C(O)CI [iodoacetate] | – | – | – | – | – | – | – | ATP levels, release of arachidonic acid and morphological alterations of myocytes (rat neonatal myocytes; rat neonatal myocytes): lowers the levels of ATP which results in the release of arachidonic acid and morphological alterations of the myocytes |
